{"source": "patent US10154974B1", "about": "“Use of abscisic acid for the prevention and treatment of malaria” (The Regents of the University of California, priority 2015, dated 2018)", "key": {"[1]": {"test": "Daily monitoring of water consumption, body weight and condition of mice", "type": "in vivo", "details": "infected CD1 mice", "method": "6-8 week old female CD1 mice (Jackson) were housed four to a cage and provided with unsupplemented water or water supplemented with 2.56 mM (±)-abscisic acid (CAS Registry Number 14375-45-2) obtained from Sigma-Aldrich (Catalog No. A1049). Water and supplemented water were changed daily. On day 3 of supplementation, mice were injected intraperitoneally with 5×10^6 P. yoelii 17XNL-infected RBCs. Mouse weight, water consumption per cage, and parasitemia were monitored daily. Parasitemia was determined from thin blood films stained with Giemsa. Parasitemia was measured as the percentage of infected RBCs divided by total RBCs, while gametocytemia was measured as the proportion of gametocyte-containing RBCs of total infected RBCs. Four mice were used per group in replicated studies. Daily parasitemias and gametocytemias were analyzed by unpaired t-test."}, "[2]": {"test": "ABA extraction from mouse plasma and quantification by ELISA", "type": "in vivo, mice", "method": "(§1) Mice were euthanized on day 7 post-infection. Blood was collected by heart puncture, spun at 8,000 rpm for 8 minutes and the plasma collected for ABA quantification. Livers and spleens were collected, retained in 10% formalin for 24 hours and then stored in 70% ethanol before sectioning and staining with hematoxylin and eosin. Liver sections were blindly scored on a scale from 0 to 3 for pigment levels, Kupffer cell density, portal tract inflammation, hemozoin deposition, extramedullary hematopoiesis, sinusoidal leukocyte density, sinusoidal adherence of leukocytes, and presence of microabscesses. Spleen sections were blindly scored on a scale from 0 to 3 for hyperplasia, extramedullary hematopoiesis, pigment, and levels of histiocytes and neutrophils. Pathology scores of control and treated mice were analyzed by unpaired t-test.\nABA was extracted from mouse plasma as described (Engelberth, J Vis Exp, 2009, 28:1127). Briefly, 50 μL of plasma was added to 200 μL extraction buffer (1-propanol:H2O:concentrated HCL at a 2:1:0.002 volume ratio) and vortexed. […] Dried samples were re-eluted in 100% methanol and ABA levels determined using the Phytodetek Abscisic Acid ELISA kit (Agdia) according to the manufacturer's instructions. ABA levels in the plasma of control and ABA-supplemented mice, 4-5 per group, were analyzed by Mann Whitney test."}, "spleen": {"test_system": "spleen", "test": "Spleen histology scoring", "type": "in vivo", "details": "P. yoelii-infected mice", "method": "as §1"}, "ILP3 and ILP4": {"test_system": "ILP3 and ILP4", "test": "Insulin-like peptide mRNA levels in mosquito midgut", "type": "in vivo, Anopheles stephensi", "details": "P. falciparum-fed mosquitoes", "method": "FIG. 14A-B illustrate that ABA reduces insulin-like peptide expression in the midgut. Specifically, mRNA levels are shown of ILP3 (FIG. 14A) and ILP4 (FIG. 14B) in ABA-treated, P. falciparum-fed mosquito midguts. Data are shown as fold change compared to control-treated mosquitoes. Each dot represents one replicate of 10 pooled midguts. Data were analyzed by one sample t-test. * p<0.05."}, "Complete blood counts": {"test": "Complete blood counts", "type": "in vivo, mice", "method": "FIG. 19A-C through FIG. 28A-B and Tables 6-1 through 6-4 support the use of ABA for treating Plasmodium-infected mammalian subjects. In the following tables, 4-5 mice were used per treatment, and data were analyzed by unpaired t-test. […] Abbreviations for Tables 6-3 and 6-4 are as follows: WBC=white blood cells, RBCs=red blood cells, MCV=mean corpuscular volume, MCH=mean corpuscular hemoglobin, MCHC=mean corpuscular hemoglobin concentration, RDW=red blood cell distribution width, MPV=mean platelet volume."}, "[3]": {"test_system": "cytokine and immune-regulators", "test": "Cytokine and immune-regulator mRNA in spleen and liver", "type": "in vivo", "details": "CD1 mice, day 4 and 7 post-infection", "method": "FIG. 23A-B illustrate that ABA supplementation alters cytokine expression in the spleen and liver of infected mice consistent with enhanced IgG production and inflammasome activation. Shown are mRNA levels of cytokine and immune-regulators in the spleen (FIG. 23A) and liver (FIG. 23B) of control and ABA-supplemented CD1 mice on day 4 and 7 post-infection with P. yoelii 17XNL. Data are shown as −Δct, normalized to β-actin and were analyzed by unpaired t-test. # p<0.1 * p<0.05 ** p<0.01."}, "[4]": {"details": "P. yoelii infection, day 11 post-infection"}}, "data": [{"smiles": "CC1=CC(=O)CC(C)(C)[C@@]1(O)/C=C/C(C)=C\\C(=O)O", "note": "(racemic) [ABA, (2Z,4E)-5-[(1S)-1-hydroxy-2,6,6-trimethyl-4-oxocyclohex-2-en-1-yl]-3-methylpenta-2,4-dienoic acid]", "values": [{"measurement": "lethargy at necropsy", "setting": "[1]; day 7, compared to controls", "value": "less lethargic"}, {"measurement": "daily weight change", "setting": "[1]; over the course of infection", "value": "not different"}, {"measurement": "increase of ABA levels in plasma", "setting": "[2]; P. yoelii infection, vs non-supplemented infected mice", "value": "over 6 fold"}, {"measurement": "ABA levels in plasma", "setting": "[2]; oral supplementation, absence of infection", "value": "did not alter"}, {"measurement": "histiocyte density, pigment deposition, extramedullary hematopoiesis in the spleen", "setting": "spleen", "value": "not altered"}, {"measurement": "lymphoid hyperplasia of the spleen", "setting": "spleen", "value": "reduced"}, {"measurement": "insulin-like peptide expression", "setting": "ILP3 and ILP4", "value": "reduces"}, {"measurement": "percentage of basophils in whole blood", "setting": "Complete blood counts; [4]", "value": "partially rescues decrease"}, {"measurement": "percentage of eosinophils in whole blood", "setting": "Complete blood counts; [4]", "value": "partially rescues decrease"}, {"measurement": "% RDW, Mean", "setting": "Complete blood counts; P. yoelii-infected mice", "value": 34.95, "unit": "%"}, {"measurement": "% hematocrit, Mean", "setting": "Complete blood counts; P. yoelii-infected mice", "value": 21.00, "unit": "%"}, {"measurement": "% lymphocytes, Mean", "setting": "Complete blood counts; P. yoelii-infected mice", "value": 69.22, "unit": "%"}, {"measurement": "% monocytes, Mean", "setting": "Complete blood counts; P. yoelii-infected mice", "value": 5.31, "unit": "%"}, {"measurement": "% neutrophils, Mean", "setting": "Complete blood counts; P. yoelii-infected mice", "value": 22.8, "unit": "%"}, {"measurement": "MCHC, Mean", "setting": "Complete blood counts; P. yoelii-infected mice", "value": 34.73, "unit": "g/dL"}, {"measurement": "MCV, Mean", "setting": "Complete blood counts; P. yoelii-infected mice", "value": 55.20, "unit": "fL"}, {"measurement": "MPV, Mean", "setting": "Complete blood counts; P. yoelii-infected mice", "value": 6.23, "unit": "fL"}, {"measurement": "RBCs, Mean", "setting": "Complete blood counts; P. yoelii-infected mice", "value": 3.83, "unit": "M/ul"}, {"measurement": "WBC, Mean", "setting": "Complete blood counts; P. yoelii-infected mice", "value": 31.90, "unit": "K/uL"}, {"measurement": "hemoglobin, Mean", "setting": "Complete blood counts; P. yoelii-infected mice", "value": 7.28, "unit": "g/dL"}, {"measurement": "platelets, Mean", "setting": "Complete blood counts; P. yoelii-infected mice", "value": 234.3, "unit": "K/ul"}, {"measurement": "complete blood counts", "setting": "Complete blood counts; uninfected and P. yoelii-infected mice", "value": "no effect"}, {"measurement": "% RDW, Mean", "setting": "Complete blood counts; uninfected mice", "value": 17.02, "unit": "%"}, {"measurement": "% hematocrit, Mean", "setting": "Complete blood counts; uninfected mice", "value": 38.48, "unit": "%"}, {"measurement": "% lymphocytes, Mean", "setting": "Complete blood counts; uninfected mice", "value": 66.56, "unit": "%"}, {"measurement": "% monocytes, Mean", "setting": "Complete blood counts; uninfected mice", "value": 11.71, "unit": "%"}, {"measurement": "% neutrophils, Mean", "setting": "Complete blood counts; uninfected mice", "value": 17.53, "unit": "%"}, {"measurement": "MCHC, Mean", "setting": "Complete blood counts; uninfected mice", "value": 32.72, "unit": "g/dL"}, {"measurement": "MCV, Mean", "setting": "Complete blood counts; uninfected mice", "value": 43.14, "unit": "fL"}, {"measurement": "MPV, Mean", "setting": "Complete blood counts; uninfected mice", "value": 5.74, "unit": "fL"}, {"measurement": "RBCs, Mean", "setting": "Complete blood counts; uninfected mice", "value": 8.94, "unit": "M/ul"}, {"measurement": "WBC, Mean", "setting": "Complete blood counts; uninfected mice", "value": 5.73, "unit": "K/uL"}, {"measurement": "hemoglobin, Mean", "setting": "Complete blood counts; uninfected mice", "value": 12.56, "unit": "g/dL"}, {"measurement": "platelets, Mean", "setting": "Complete blood counts; uninfected mice", "value": 573.0, "unit": "K/ul"}, {"measurement": "cytokine expression in the spleen and liver", "setting": "[3]", "value": "alters"}]}]}
